“Also recorded” adds a separate entry of the source. Counter-ions that a name gives are not always drawn. Like-named read-outs stand apart in the source and are kept apart here.
How the values were obtained:
[1] = system: rats; conditions: cited from earlier work
[2] = system: zebrafish embryos aged 72 hpf; assay: Chronology method: heart beat recorded at 5 min intervals over 30 min; conditions: 10 μM; for Atrium and ventricle rhythmicity pattern after 30 min incubation: compared to control; for Cardiac phenotype by time chronology method: 10 sec recordings at 5 min intervals over 30 min, methylcellulose mounted
Experimental: (§1) Stock concentrations for each compound in the library are 10 mM with 100 µL volume. The compounds are diluted with distilled water to make working solutions at 10 µM. For drug treatment, 20 µM of the compound stock was dropped onto the fish mounted with the same volume (around 50 µL) of 3% methylcellulose for a final working concentration of 10 µM. The heart beats from three zebrafish larvae were used for the first round of screening. […] The heart beats from five zebrafish larvae for each compound were recorded for 10 sec at 5 min intervals over a period of 30 min.
(§2) After drug administration, we video recorded the heart beat for 10 sec at 5 min intervals, over a period of 30 min.

[3] = system: zebrafish embryos aged 72 hpf; assay: End-point screen of ion channel ligand library for cardiac rhythm (ImageJ-based); conditions: 10 μM, 30 min incubation
Experimental: Seventy-two hpf larvae were used for this study.
The compounds are diluted with distilled water to make working solutions at 10 µM. For drug treatment, 20 µM of the compound stock was dropped onto the fish mounted with the same volume (around 50 µL) of 3% methylcellulose for a final working concentration of 10 µM. The heart beats from three zebrafish larvae were used for the first round of screening. […] The heart beats from five zebrafish larvae for each compound were recorded for 10 sec at 5 min intervals over a period of 30 min.
For the cardiac rhythm assay, we mounted zebrafish embryos aged at 72 hpf with 3% methylcellulose to reduce their movement, and later applied chemicals from an ion channel ligand library (containing 70 compounds) at 10 μM to measure the changes in cardiac rhythm according to our previous ImageJ-based method [25]. In order to prevent the potential side effects of anesthesia on heart rate or rhythmicity, we used methylcellulose to mount zebrafish larvae for videotaping.
Initially, we used an image-based end-point method to screen the potential effects of an ion channel ligand library on heart beat rhythm alterations. […] In order to screen a potential compound with high cardiotoxicity at a low dose, we performed chemical screening at 10 μM as a starting point. […] A heartbeat that exceeds these ranges is considered abnormal.

[4] = system: zebrafish embryos aged 72 hpf; assay: Dose response experiment for lowest effective dose (LOED), time chronology method; conditions: 1 µM and 5 µM
Experimental: Three different doses, 1, 5 and 10 μM, of the tested compounds were given to zebrafish embryos aged 72 hpf, and the heart beat rate and rhythmicity were recorded for comparison by the time chronology method.
(§3) Five zebrafish larvae aged at 72 h post-fertilization (hpf) were used in this assay.

[5] = system: zebrafish embryos aged 72 hpf; conditions: in vivo
Experimental: as §1, §2

[6] = system: hERG channel; conditions: cited from earlier work
[7] = system: cardiac K+ channels; conditions: cited from earlier work
[8] = system: zebrafish larvae aged 72 hpf; assay: Washout experiment for heart rate and rhythmicity; conditions: washout for 30 min and 1 h
Experimental: as §3

**Q.** For `CNc1ccc2oc(C[C@H]3O[C@@]4(CC[C@H]3C)O[C@H]([C@H](C)C(=O)c3ccc[nH]3)[C@H](C)C[C@H]4C)nc2c1C(=O)O` [compound 1333, Antibiotic A-23187], which “Increase of heart beat” value [1] is on record?
**A.** up to 50%

**Q.** And the “Atrium and ventricle rhythmicity pattern after 30 min incubation” value (“Atrium and ventricle rhythmicity pattern” for short) [2]?
**A.** 1:1 rhythm, but the peak was more compact

**Q.** What about the “Heart rhythm phenotype in first step screening (end-point screen)” value (shortened to “Heart rhythm phenotype”) [3] of the same compound?
**A.** ventricular fibrillation or total heart stop; also recorded: irregular heart rhythmicity

**Q.** And the “Heart rhythm phenotype” value ([3]; listed as Antibiotic A-23187)?
**A.** ventricular fibrillation

**Q.** With `Fc1ccc(C(c2ccc(F)cc2)N2CCN(C/C=C/c3ccccc3)CC2)cc1` [compound 1345, Flunarizine hydrochloride] as the compound, how does the “Cardiac phenotype by time chronology method” value [2] read?
**A.** slowing of heart rate as well as arrhythmia after incubation for 25 and 30 min; also recorded: slowing of the heart as well as arrhythmia after incubation for 25 and 30 min

**Q.** And the “Atrium and ventricle rhythmicity pattern” value [2]?
**A.** arryhtmia was not shown in the pattern; however, the peak was less compact compared to the control

**Q.** What about the “Heart rhythm phenotype” value [3] of the same compound?
**A.** slight slowing of the heartbeat (bradycardia); also recorded: irregular heart rhythmicity

**Q.** For `COC(=O)c1c(C)[nH]c(C)c1C(=O)c1ccccc1Cc1ccccc1` [compound 1346, FPL-64176], which “Cardiac phenotype by time chronology method” value [2] is on record?
**A.** arrhythmia

**Q.** What about the “Atrium and ventricle rhythmicity pattern” value [2] of the same compound?
**A.** arrhythmic beating

**Q.** What about the “Heart rhythm phenotype” value [3] of the same compound?
**A.** ventricular fibrillation or total heart stop; also recorded: irregular heart rhythmicity

**Q.** And the “Heart rhythm phenotype” value ([3]; listed as FPL-64176)?
**A.** heart completely stopped

**Q.** And the “Effect on cardiac rhythmicity at low concentration” value [4]?
**A.** did not change

**Q.** What about the “Effect on heart beat rate at low concentration” value [4] of the same compound?
**A.** did not change the heart beat rate

**Q.** For `O=c1[nH]c2ccccc2n1C1CCN(CCCC(c2ccc(F)cc2)c2ccc(F)cc2)CC1` [compound 1360, Pimozide], which “Cardiac phenotype by time chronology method” value [5] is on record?
**A.** atrioventricular block from 10 min onwards

**Q.** And the “Concentration giving significant inhibition of hERG channel currents” value ([6]; as low as)?
**A.** 3 nM

**Q.** And the IC50 ([6]; read-out: IC50 of hERG channel currents)?
**A.** 18 nM

**Q.** And the “Reported cardiac adverse effect” value [7]?
**A.** acquired long QT syndrome and ventricle arrhythmia

**Q.** What about the “Reversibility of cardiotoxicity effect” value [7] of the same compound?
**A.** poorly reversible

**Q.** And the “Restoration of heart rate after washout” value [8]?
**A.** could not be fully restored, even after 1 h of washout treatment

**Q.** What about the “Reversal of arrhythmic effect after washout” value [8] of the same compound?
**A.** unable to fully reverse the arrhythmic effect

**Q.** What about the “Cardiac phenotype by time chronology method” value [2] of the same compound?
**A.** atrioventricular block occurred, subsequently becoming more severe over time

**Q.** What about the “Atrium and ventricle rhythmicity pattern” value [2] of the same compound?
**A.** arrhythmic, with one peak in the ventricle being followed by two in the atrium

**Q.** And the “Heart rhythm phenotype” value [3]?
**A.** ventricular fibrillation or total heart stop; also recorded: irregular heart rhythmicity

**Q.** Which “Cardiac phenotype by time chronology method” value [2] does the source give for `O=C1NCN(c2ccccc2)C12CCN(CCCC(c1ccc(F)cc1)c1ccc(F)cc1)CC2` [compound 1377, Fluspirilene] here?
**A.** arrhythmia from 5 min onwards

**Q.** And the “Cardiac phenotype by time chronology method” value ([2]; listed as fluspirilene)?
**A.** arrhythmia occurred from 5 min onwards and became more severe over time

**Q.** What about the “Atrium and ventricle rhythmicity pattern” value [2] of the same compound?
**A.** arrhythmic, with one peak of the ventricle being followed by two of the atrium

**Q.** What about the “Heart rhythm phenotype” value [3] of the same compound?
**A.** ventricular fibrillation or total heart stop; also recorded: irregular heart rhythmicity; also recorded: total heart stop

**Q.** And the “Heart rhythm phenotype” value ([3]; listed as fluspirilene)?
**A.** heart completely stopped
